Tests used:
wtERBB2 = wtERBB2 (Homo sapiens (Human), UniProt P04626); experiment: HotSpot radiometric kinase activity assay, wtERBB2; assay type: biochemical; details: 30 nM wtERBB2, 10 μM 33P-ATP, 20 min preincubation, 2 hours, read-out: HER2 WT IC50
Experimental: The purpose of the wtERBB2, ERBB2-A775_G776insYVMA (ERBB2YVMA), wtEGFR biochemical assay was to evaluate the inhibition (% inhibition and IC50 values) of the small molecule inhibitors by using the “HotSpot” radiometric kinase activity assay. HotSpot assays monitor the […] of kinase substrate by the radioactive gamma phosphate of adenosine triphosphate (33P-ATP) during biochemical reactions. HotSpot assays was performed in steps upon completion of the kinase reaction: deposition of a reaction mixture aliquot onto P81 ion exchange paper, extensive washing of the aforementioned P81 paper using phosphoric acid to remove unbound radiolabeled 33P-ATP from the P81 paper, and finally visualization and quantification of the dried P81 paper utilizing a phosphoimager. […] Typical reaction solutions (10 μL final reaction volume) contained the following buffer conditions: 20 mM Hepes (pH 7.5), 10 mM MgCl2, 1 mM EGTA, 0.01% Brij35, 0.02 mg/mL BSA, 0.1 mM Na3VO4, 2 mM DTT, 1% DMSO. The assay was primed by preparing a fresh 0.2 mg/mL solution of pEY (Sigma Cat: P7244) substrate in the reaction buffer and supplementing that solution with […] of MnCl2 as substrate cofactor (Sigma Cat: M9522). The kinase of interest was then added to the solution at the appropriate concentration (30 nM wtERBB2 from, or 20 nM ERBB2YVMA, or 4 nM wtEGFR) and gently mixed prior to delivery of compound in 100% DMSO by acoustic dispensing (Beckman Echo550). Compound, Kinase, and substrate were allowed to incubate for 20 min at room temperature prior to the initiation of the reaction by addition of 33P-ATP (PerkinElmer Cat: NEG602, final conc 10 μM). […] IC50 determinations were made from a plot of kinase activity as a function of inhibitor concentration fit to the 4-parameter IC50 equation with the enzyme concentration held constant using GraphPad Prism (San Diego).

BaF3_HER2YVMA cells = experiment: Cell growth inhibition assay, BaF3_HER2YVMA; assay type: cell-based; details: 72 h, BaF3_HER2YVMA cells, 3 days treatment, CellTiterGlo 2.0; read-out: HER2-YVMA IC50 (nM), cell growth inhibition
BaF3_HER2WT cells = experiment: Cell growth inhibition assay, BaF3_HER2WT; assay type: cell-based; details: 72 h, 3 days treatment, CellTiterGlo 2.0, read-out: HER2 WT IC50 (nM), cell growth inhibition
BaF3_EGFRWT cells = experiment: Cell growth inhibition assay, BaF3_EGFRWT; assay type: cell-based; details: 72 h, 80 ng/mL recombinant human EGF, 3 days treatment, CellTiterGlo 2.0, read-out: EGFR WT IC50 (nM), cell growth inhibition

Chain of wtERBB2 (P04626 23-1255): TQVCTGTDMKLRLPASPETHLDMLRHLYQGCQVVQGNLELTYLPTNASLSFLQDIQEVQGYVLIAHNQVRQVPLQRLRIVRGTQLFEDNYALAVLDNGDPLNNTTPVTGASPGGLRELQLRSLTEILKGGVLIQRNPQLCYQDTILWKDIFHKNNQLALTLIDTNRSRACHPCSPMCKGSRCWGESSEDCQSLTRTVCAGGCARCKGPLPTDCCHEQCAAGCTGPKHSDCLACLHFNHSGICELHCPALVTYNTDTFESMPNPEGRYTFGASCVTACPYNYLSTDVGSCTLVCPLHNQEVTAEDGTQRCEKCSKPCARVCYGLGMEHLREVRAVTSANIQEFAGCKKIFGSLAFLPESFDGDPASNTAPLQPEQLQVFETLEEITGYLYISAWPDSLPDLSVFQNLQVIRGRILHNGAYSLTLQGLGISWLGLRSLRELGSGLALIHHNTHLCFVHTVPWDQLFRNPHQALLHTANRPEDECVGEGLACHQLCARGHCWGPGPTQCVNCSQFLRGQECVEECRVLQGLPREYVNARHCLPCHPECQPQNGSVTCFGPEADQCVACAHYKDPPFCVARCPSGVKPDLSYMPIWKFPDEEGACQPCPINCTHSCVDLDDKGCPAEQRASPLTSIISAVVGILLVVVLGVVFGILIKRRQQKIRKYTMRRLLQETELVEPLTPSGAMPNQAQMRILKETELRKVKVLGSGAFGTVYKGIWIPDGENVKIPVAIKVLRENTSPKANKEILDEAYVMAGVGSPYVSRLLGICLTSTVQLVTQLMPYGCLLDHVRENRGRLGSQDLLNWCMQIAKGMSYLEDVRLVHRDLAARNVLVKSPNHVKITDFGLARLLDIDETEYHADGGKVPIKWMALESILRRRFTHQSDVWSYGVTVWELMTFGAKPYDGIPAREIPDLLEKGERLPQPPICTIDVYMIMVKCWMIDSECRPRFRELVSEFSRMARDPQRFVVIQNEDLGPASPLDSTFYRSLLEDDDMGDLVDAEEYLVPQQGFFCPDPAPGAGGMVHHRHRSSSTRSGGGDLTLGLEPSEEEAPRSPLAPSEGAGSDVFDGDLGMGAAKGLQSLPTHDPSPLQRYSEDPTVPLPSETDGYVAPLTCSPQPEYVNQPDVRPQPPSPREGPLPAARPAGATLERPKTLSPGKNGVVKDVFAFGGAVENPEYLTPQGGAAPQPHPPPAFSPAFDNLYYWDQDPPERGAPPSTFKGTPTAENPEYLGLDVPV

SMILES	IC50 (wtERBB2)	IC50 (BaF3_HER2YVMA cells)	IC50 (BaF3_HER2WT cells)	IC50 (BaF3_EGFRWT cells)
Cc1cc(Nc2ncnn3ccc([C@@H]4CCCN(C(=O)/C=C/CN(C)C)C4)c23)ccc1Oc1ccn2ncnc2c1 (single isomer, unassigned) [Example 107]	< 0.2 µM			
C=CC(=O)NC1CCN(C(=O)c2ccn3ncnc(Nc4ccc(Oc5ccn6ncnc6c5)c(C)c4)c23)CC1 [Example 5, N-(1-(4-((4-([1,2,4]triazolo[1,5-a]pyridin-7-yloxy)-3-methylphenyl)amino)pyrrolo[2,1-f][1,2,4]triazine-5-carbonyl)piperidin-4-yl)acrylamide]	< 0.2 µM	200 to 500 nM	< 200 nM	1500 to 5000 nM
Cc1cc(Nc2ncnn3ccc([C@H]4CCN(C(=O)/C=C/CN(C)C)C4)c23)ccc1Oc1ccn2ncnc2c1 [Example 100, (R,E)-1-(3-(4-((4-([1,2,4]triazolo[1,5-a]pyridin-7-yloxy)-3-methylphenyl)amino)-pyrrolo[2,1-f]1,2,4-triazin-5-yl)pyrrolidin-1-yl)-4-(dimethylamino)but-2-en-1-one]	< 0.2 µM			
Cc1cc(Nc2ncnn3ccc([C@H]4CCCN(C(=O)/C=C/CN(C)C)C4)c23)ccc1Oc1ccn2ncnc2c1 [Example 108, (R,E)-1-(3-(4-((4-([1,2,4]triazolo[1,5-a]pyridin-7-yloxy)-3-methylphenyl)amino)-pyrrolo[2,1-f][1,2,4]-triazin-5-yl)piperidin-1-yl)-4-(dimethylamino)but-2-en-1-one]	< 0.2 µM			
Cc1cc(Nc2ncnn3ccc([C@H]4CCCN(C(=O)/C=C/CN(C)C)CC4)c23)ccc1Oc1ccn2ncnc2c1 [Example 110, (S,E)-1-(4-(4-((4-([1,2,4]triazolo[1,5-a]pyridin-7-yloxy)-3-methylphenyl)amino)pyrrolo[2,1-f][1,2,4]triazin-5-yl)azepan-1-yl)-4-(dimethylamino)but-2-en-1-one]	< 0.2 µM			
Cc1cc(Nc2ncnn3ccc(C4CN(C(=O)/C=C/CN5CC(F)C5)C4)c23)ccc1Oc1ccc2c(c1)ncn2C [Example 161, (E)-4-(3-fluoroazetidin-1-yl)-1-(3-(4-((3-methyl-4-((1-methyl-1H-benzo[d]imidazol-5-yl)oxy)phenyl)amino)pyrrolo[2,1-f][1,2,4]triazin-5-yl)azetidin-1-yl)but-2-en-1-one]		< 200 nM	< 200 nM	1500 to 5000 nM
Cc1cc(Nc2ncnn3ccc(C4CCN(C(=O)/C=C/CN5CC(F)C5)CC4)c23)ccc1Oc1ccc2c(c1)ncn2C [Example 162, (E)-4-(3-fluoroazetidin-1-yl)-1-(4-(4-((3-methyl-4-((1-methyl-1H-benzo[d]imidazol-5-yl)oxy)phenyl)amino)pyrrolo[2,1-f][1,2,4]triazin-5-yl)piperidin-1-yl)but-2-en-1-one]		500 to 1500 nM	200 to 500 nM	1500 to 5000 nM
Cc1cc(Nc2ncnn3ccc(C4CCN(C(=O)/C=C/CN5CC(F)C5)CC4)c23)ccc1Oc1ccn2ncnc2c1 [Example 163]		< 200 nM	< 200 nM	1500 to 5000 nM
Cc1cc(Nc2ncnn3ccc(C4CCN(C(=O)/C=C/CN5CCC(F)C5)CC4)c23)ccc1Oc1ccn2ncnc2c1 (centres unmarked) [Example 164, (E)-1-(4-(4-((4-([1,2,4]triazolo[1,5-a]pyridin-7-yloxy)-3-methylphenyl)amino)pyrrolo[2,1-f][1,2,4]triazin-5-yl)piperidin-1-yl)-4-(3-fluoropyrrolidin-1-yl)but-2-en-1-one]		< 200 nM	< 200 nM	1500 to 5000 nM
CO[C@H]1CN(C/C=C/C(=O)N2CC(c3ccn4ncnc(Nc5ccc(Oc6ccc7c(c6)ncn7C)c(C)c5)c34)C2)C[C@H]1OC [Example 165, (E)-4-((3R,4S)-3,4-dimethoxypyrrolidin-1-yl)-1-(3-(4-((3-methyl-4-((1-methyl-1H-benzo[d]imidazol-5-yl)oxy)phenyl)amino)pyrrolo[2,1-f][1,2,4]triazin-5-yl)azetidin-1-yl)but-2-en-1-one]		< 200 nM	< 200 nM	1500 to 5000 nM
CO[C@@H]1CN(C/C=C/C(=O)N2CC(c3ccn4ncnc(Nc5ccc(Oc6ccc7c(c6)ncn7C)c(C)c5)c34)C2)C[C@H]1OC [Example 166, (E)-4-((3R,4R)-3,4-dimethoxypyrrolidin-1-yl)-1-(3-(4-((3-methyl-4-((1-methyl-1H-benzo[d]imidazol-5-yl)oxy)phenyl)amino)pyrrolo[2,1-f][1,2,4]triazin-5-yl)azetidin-1-yl)but-2-en-1-one]		< 200 nM	< 200 nM	1500 to 5000 nM

Other lines, results leading:

IC50 (wtERBB2)	IC50 (BaF3_HER2YVMA cells)	IC50 (BaF3_HER2WT cells)	IC50 (BaF3_EGFRWT cells)	SMILES
	< 200 nM	< 200 nM	1500 to 5000 nM	CO[C@H]1CN(C/C=C/C(=O)N2CCC(c3ccn4ncnc(Nc5ccc(Oc6ccc7c(c6)ncn7C)c(C)c5)c34)CC2)C[C@H]1OC [Example 167, (E)-4-((3R,4S)-3,4-dimethoxypyrrolidin-1-yl)-1-(4-(4-((3-methyl-4-((1-methyl-1H-benzo[d]imidazol-5-yl)oxy)phenyl)amino)pyrrolo[2,1-f][1,2,4]triazin-5-yl)piperidin-1-yl)but-2-en-1-one]
	< 200 nM	< 200 nM	1500 to 5000 nM	CO[C@@H]1CN(C/C=C/C(=O)N2CCC(c3ccn4ncnc(Nc5ccc(Oc6ccc7c(c6)ncn7C)c(C)c5)c34)CC2)C[C@H]1OC [Example 168, (E)-4-((3R,4R)-3,4-dimethoxypyrrolidin-1-yl)-1-(4-(4-((3-methyl-4-((1-methyl-1H-benzo[d]imidazol-5-yl)oxy)phenyl)amino)pyrrolo[2,1-f][1,2,4]triazin-5-yl)piperidin-1-yl)but-2-en-1-one]
	< 200 nM	< 200 nM	1500 to 5000 nM	CO[C@H]1CN(C/C=C/C(=O)N2CCC(c3ccn4ncnc(Nc5ccc(Oc6ccn7ncnc7c6)c(C)c5)c34)CC2)C[C@H]1OC [Example 169, (E)-1-(4-(4-((4-([1,2,4]triazolo[1,5-a]pyridin-7-yloxy)-3-methylphenyl)amino)pyrrolo[2,1-f][1,2,4]triazin-5-yl)piperidin-1-yl)-4-((3R,4S)-3,4-dimethoxypyrrolidin-1-yl)but-2-en-1-one]
	< 200 nM	< 200 nM	1500 to 5000 nM	CO[C@@H]1CN(C/C=C/C(=O)N2CCC(c3ccn4ncnc(Nc5ccc(Oc6ccn7ncnc7c6)c(C)c5)c34)CC2)C[C@H]1OC [Example 170, (E)-1-(4-(4-((4-([1,2,4]triazolo[1,5-a]pyridin-7-yloxy)-3-methylphenyl)amino)pyrrolo[2,1-f][1,2,4]triazin-5-yl)piperidin-1-yl)-4-((3R,4R)-3,4-dimethoxypyrrolidin-1-yl)but-2-en-1-one]
	1500 to 5000 nM	1500 to 5000 nM	1500 to 5000 nM	Cc1cc(Nc2ncnn3ccc(C4(F)CCN(C(=O)/C=C/CN(C)C)CC4)c23)ccc1Oc1ccn2ncnc2c1 [Example 175, (E)-1-(4-(4-((4-([1,2,4]triazolo[1,5-a]pyridin-7-yloxy)-3-methylphenyl)amino)pyrrolo[2,1-f][1,2,4]triazin-5-yl)-4-fluoropiperidin-1-yl)-4-(dimethylamino)but-2-en-1-one]
	< 200 nM	< 200 nM	1500 to 5000 nM	Cc1cc(Nc2ncnn3ccc(C4CCN(C(=O)/C=C/CN(C)C)CC4(F)F)c23)ccc1Oc1ccn2ncnc2c1 (centres unmarked) [Example 176, (E)-1-(4-(4-((4-([1,2,4]triazolo[1,5-a]pyridin-7-yloxy)-3-methylphenyl)amino)pyrrolo[2,1-f][1,2,4]triazin-5-yl)-3,3-difluoropiperidin-1-yl)-4-(dimethylamino)but-2-en-1-one]
	< 200 nM	< 200 nM	1500 to 5000 nM	CNC/C=C/C(=O)N1CCC(c2ccn3ncnc(Nc4ccc(Oc5ccn6ncnc6c5)c(C)c4)c23)CC1 [Example 177, (E)-1-(4-(4-((4-([1,2,4]triazolo[1,5-a]pyridin-7-yloxy)-3-methylphenyl)amino)pyrrolo[2,1-f][1,2,4]triazin-5-yl)piperidin-1-yl)-4-(methylamino)but-2-en-1-one]
	> 5000 nM	1500 to 5000 nM	> 5000 nM	Cc1cc(Nc2ncnn3ccc(C(=O)NCCCN(C)C)c23)ccc1N [Example 181, 4-((4-amino-3-methylphenyl)amino)-N-(3-(dimethylamino)propyl)pyrrolo[2,1-f][1,2,4]triazine-5-carboxamide]

From US20250276983A1, “COMPOUNDS AND METHODS FOR MODULATING HER2” (IAMBIC THERAPEUTICS, INC., priority 2022, published 2025)
